Non-standard residues stand in square brackets, D forms with d. Residues, ends and D or L forms follow the SMILES beside them. *: point of attachment. Nle = CCCC[C@H](N)C(=O)O; Cbz = O=C(OCc1ccccc1)*

Holding throughout (format): cell-based
Assay [1] relates to MDA-MB-231, T47-D and MCF-7 breast cancer cell lines. Nature of the assay: Proliferation of breast cancer cell lines treated with GSIs for 72 h, Coulter Counter cell count. The following applies: tested 10 nM to 50 μM. The procedure:
Graphs illustrating the effects of three GSIs: (A) DAPT (N-[N-(3,5-Difluorophenacetyl-L-alanyl)]-S-phenylglycine t-butyl ester), (B) Compound E ((2S)-2-{[(3,5-Difluorophenyl)acetyl]amino}-N-[(3S)-1-methyl-2-oxo-5-phenyl-2,3-dihydro-1H-1,4-benzodiazepin-3-yl]propanamide) and (C) GSI1 (Z-Leu-Leu-Nle-CHO) on proliferation in three breast cancer cell lines (MDA-MB-231, T47-D and MCF-7 cells). Cells were treated with the GSIs at different concentrations for 72 hours and the number of cells counted.
FIG. 6 illustrates the effect of three GSIs, DAPT, Compound E and GSI1 on proliferation in three breast cancer cell lines, MDA-MB-231 [Oestrogen receptor (ER) negative, epidermal growth factor receptor (EGFR) and HER-2 strongly positive, increasingly metastatic T47-D-MCF-MDA], T47-D [weakly ER positive, progesterone receptor positive, strongly EGFR (HER-1, cERB-B1) positive and HER-2(c-ERB-B2) positive] and MCF-7 [highly ER positive and very weakly EGFR and HER-2 positive if at all]. The breast cancer cell lines were treated with the 3 GSIs for 72 h. 20,000 cells were seeded into 24 well plates in triplicate and allowed to adhere overnight. […] After 72 hours the media was removed and the adherent cells removed and counted on a Coulter Counter. […]

Assay [2] relates to MCF-7, T47D, ZR-75-1, MDA-MB-231 and Cal-51 breast cancer cell lines. Put plainly: Sulphorhodamine B Assay (SRB) of GSI1 on breast cancer cell lines. From the text:
Graphs illustrating the effects of GSI1, at different concentrations, on proliferation in five breast cancer cell lines: (A) MCF-7 cells, (B) T47D cells, (C) ZR-75-1 cells, (D) MDA-MB-231 cells and (E) Cal- 51 cells.
The effect of GSI1 on cell proliferation was investigated further in a range of breast cancer cell lines, including both oestrogen receptor positive and negative cell lines, using the Sulphorhodamine B Assay (SRB) to measure cell numbers as illustrated in FIG. 7. […] 6,000 cells were plated in 6 replicates and allowed to adhere overnight. The media was replaced the following day with media containing GSI1 at different concentrations (100 nM, 250 nM, 500 nM, 750 nM, 1 μM, 2 μM, 5 μM, and 10 μM) apart from the control which was media+dimethyl sulphoxide (the solvent for GSI1 at a concentration equal to the highest in the GSI1 treated wells). One plate of cells was subjected to the Sulphorhodamine B Assay (SRB), which […] is an accepted measure of cell numbers, on this day, day 0. Briefly, cells were fixed by adding 100 μl/well of ice-cold 40% Trichloroacetic acid to each well and leaving for 60 mins. Plates were washed 5 times in running tap water (allowing water to fill wells indirectly) and stained with 100 μl/well SRB reagent (0.4% w/v SRB [Sigma-s-9012] in 1% Acetic acid) for 30 mins. Plates were washed 5 times in 1% acetic acid and left overnight to dry before solubilizing with 100 μl/well 10 mM Tris-base. Plates were subject to shaking for 30 mins and absorbance read at 492 nm. The remaining plates were then assayed at 2-day intervals up to day 10. […] Thus, it was evident that irrespective of the cell characteristics that 1 μM and higher concentrations were an effective killing dose and doses as low as 250 nM were inhibitory to cell proliferation.

Assay [3] has as its system Gamma Secretase Activity in breast cancer cell lines. Nature of the assay: Gamma-Secretase Activity Assay (R&D Systems kit) upon GSI1 treatment. The following applies: 750 nM, 2 uM, 5 uM; 24 and 48 hours. Here is the method: 1.5×10^6 cells were plated out and allowed to adhere overnight. The next day, cells were treated with increasing concentrations of GSI1 (750 nM, 2 uM, 5 uM) for 24 and 48 hours. We used the R&D Systems Gamma Secretase Activity Kit (as previously reported- ref from R&D Spec sheet) to determine Gamma Secretase Activity in breast cancer cell lines. Cells were washed twice with ice-cold PBS and all following steps, according to manufacturer's protocol were performed at 4 degrees. Briefly, cells were harvested in the Cell Extraction buffer, and incubated on ice for at least 10 minutes, to allow for maximal Buffer activity. Lysates were centrifuged at 10,000×g for 1 minute. Supernatants were collected with a total protein yield between 0.5-1 mg/ml. Pierce BCA Protein Assay was used to determine protein concentration in each sample. 200 microg of was used and incubated with the gamma-secretase fluorogenic substrate for 2 hours at 37° C. Fluorescence was measured at 355/460 nm.

Assay [4] concerns MDA-MB-231, T47D and MCF-7 cells. Nature of the assay: Annexin V staining / full cell cycle analysis by FACS after GSI1. Here is the method: (§1) We next did Annexin V staining which is a marker of apoptosis. Cells were treated with GSI1 for 0, 7, 24 and 48 hours. After trypsinizing, the cells were washed with PBS 5 times and then treated with RNAase (100 μg/ml) for 20 mins then propidium iodide was added at 50 μg/ml per 1×10^7 cells, and incubated overnight at 4° C. The samples were then filtered through a 70 μm mesh and run on a FACS with the following settings: Forward scatter 113, side scatter 356 and PE setting 380. Although there was an increase in staining indicating apoptosis, this was only approximately 10%. For example, in MDA-MB-231 cells there was a 5% increase in Annexin V staining after 7 hours of treatment and in T47D and MCF-7 cells there was an 8% increase in Annexin V staining. We have repeated these experiments with full cell cycle analysis at 7, 24 and 48 h post treatment and again detect apoptosis but […]. […] Nevertheless it is likely that cell proliferation is inhibited via another mechanism as opposed to the induction of cellular death.
(In general: Flow cytometry measures light scatter and fluorescence of single cells or particles in a stream.)

For assay [5], the system named is T47D cells. Put plainly: Annexin V staining after GSI1. The procedure:
as §1

The test system of assay [6] is MDA-MB-231 cells. Put plainly: Annexin V staining after GSI1. The conditions noted are these: after 7 hours of treatment. The procedure: as §1
Assay [7] has as its system MCF-7 cells. Nature of the assay: Annexin V staining after GSI1. Here is the method: as §1

Consider `CCCC[C@@H](C=O)NC(=O)[C@H](CC(C)C)NC(=O)[C@H](CC(C)C)NC(=O)OCc1ccccc1` [GSI1, Z-Leu-Leu-Nle-CHO] (Cbz-Leu-Leu-[Nle]-aldehyde), for which the “concentration that virtually eliminates all the cells” value in assay [1] is 1 µM. The “effect of the 1 μM treatment on cell numbers” value in assay [2] (1 μM, each cell line, assayed up to day 10) was “greatly reduced cell numbers”. Further, the effective killing dose in assay [2] (irrespective of cell characteristics, up to day 10) was not below 1 µM. In assay [2] (summary statement), the “concentration effective at killing / lethal to breast cancer cell lines” value was found to be 1 µM. Moreover, in assay [2] (up to day 10), the “lowest dose inhibitory to cell proliferation” value was found to be 250 nM. The “reduction in gamma-secretase activity” value in assay [3] is “dose dependant and already significant at the dose of 750 nM”. Also, the “apoptosis level in full cell cycle analysis” value in assay [4] (7, 24 and 48 h post treatment, higher concentration of GSI) was more than 25%. In assay [4] (higher concentration of GSI), the cell cycle status entry was “majority of cells were in G2/M Cell cycle arrest”. Further, the “increase in Annexin V staining indicating apoptosis” value in assay [4] (treated 0, 7, 24 and 48 hours) is on record as “approximately 10%”. The “increase in Annexin V staining” value in assay [5] turned out to be 8%; in assay [6] it was 5%; in assay [7], 8%.
